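Five concentrations, 48 hours, 96-well plates. Here, GI50 denotes the concentration required for 50% inhibition of growth.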 Active and inactive are the calls of the source. Cut-off read from the data, not from the text of the source: active = GI50 up to about 1.1 µM and inactive = higher.
Key:
Assay in all cases: DTP human tumour cell line panel, 48 h
LXFL 529 = system: LXFL 529
MDA-MB-435 = system: MDA-MB-435
TK-10 = system: TK-10
MOLT-4 = system: MOLT-4
ACHN = system: ACHN
SK-MEL-5 = system: SK-MEL-5
MDA-MB-231 = system: MDA-MB-231
SF-539 = system: SF-539
T47D = system: T47D
PC-3 = system: PC-3
SNB-19 = system: SNB-19
SR = system: SR
MDA-N = system: MDA-N
Hs-578T = system: Hs-578T
NCI-H460 = system: NCI-H460
KM12 = system: KM12
A498 = system: A498
SK-MEL-2 = system: SK-MEL-2
DLD-1 = system: DLD-1
NCI-H23 = system: NCI-H23
EKVX = system: EKVX
LOX IMVI = system: LOX IMVI
KM-20L2 = system: KM-20L2
OVCAR-4 = system: OVCAR-4
SNB-78 = system: SNB-78
HCC 2998 = system: HCC 2998
UO-31 = system: UO-31
MCF7 = system: MCF7
OVCAR-5 = system: OVCAR-5
BT-549 = system: BT-549
SF-268 = system: SF-268
CCRF-CEM = system: CCRF-CEM
HCT-15 = system: HCT-15
COLO 205 = system: COLO 205
HOP-62 = system: HOP-62
HL-60 = system: HL-60
K562 = system: K562
M19-MEL = system: M19-MEL
OVCAR-8 = system: OVCAR-8
A549 = system: A549
HOP-92 = system: HOP-92
IGROV-1 = system: IGROV-1
U-251 = system: U-251
SK-MEL-28 = system: SK-MEL-28
NCI-H226 = system: NCI-H226
SF-295 = system: SF-295
UACC-62 = system: UACC-62
NCI/ADR-RES = system: NCI/ADR-RES
DU-145 = system: DU-145
RXF 393 = system: RXF 393
DMS-273 = system: DMS-273
RPMI-8226 = system: RPMI-8226
SW-620 = system: SW-620
OVCAR-3 = system: OVCAR-3
SK-OV-3 = system: SK-OV-3
HCT-116 = system: HCT-116
CAKI-1 = system: CAKI-1
M14 = system: M14
NCI-H522 = system: NCI-H522
DMS-114 = system: DMS-114
HT-29 = system: HT-29
SN12C = system: SN12C
786-0 = system: 786-0
UACC-257 = system: UACC-257
Malme-3M = system: Malme-3M
SNB-75 = system: SNB-75

For `O=c1c2ccccc2sc2nc(CCl)nn12`, the GI50 (LXFL 529) was 19.5 µM (inactive), the GI50 (MDA-MB-435) was 8.28 µM (inactive) and the GI50 (TK-10) was 10.4 µM (inactive). For the same compound, the GI50 (MOLT-4) was 97.5 µM (inactive), the GI50 (ACHN) was 6.31 µM (inactive) and the GI50 (SK-MEL-5) was > 100 µM (inactive). For the same compound, the GI50 (MDA-MB-231) was 8.36 µM (inactive), the GI50 (SF-539) was 32.4 µM (inactive) and the GI50 (T47D) was 4.76 µM (inactive). The GI50 (PC-3) was 3.42 µM (inactive), the GI50 (SNB-19) was 77.4 µM (inactive) and the GI50 (SR) was 10.9 µM (inactive). For the same compound, the GI50 (MDA-N) was 4.94 µM (inactive), the GI50 (Hs-578T) was 2.17 µM (inactive) and the GI50 (NCI-H460) was 5.64 µM (inactive). The GI50 (KM12) was > 100 µM (inactive), the GI50 (A498) was 2.64 µM (inactive) and the GI50 (SK-MEL-2) was 48.4 µM (inactive). For the same compound, the GI50 (DLD-1) was 6.81 µM (inactive), the GI50 (NCI-H23) was 7.59 µM (inactive) and the GI50 (EKVX) was 16 µM (inactive). For the same compound, the GI50 (LOX IMVI) was > 100 µM (inactive), the GI50 (KM-20L2) was 14.5 µM (inactive) and the GI50 (OVCAR-4) was > 100 µM (inactive). For the same compound, the GI50 (SNB-78) was > 68.4 µM (inactive), the GI50 (HCC 2998) was 13.3 µM (inactive) and the GI50 (UO-31) was 8.28 µM (inactive). The GI50 (MCF7) was 3.65 µM (inactive), the GI50 (OVCAR-5) was 24 µM (inactive) and the GI50 (BT-549) was 27 µM (inactive). The GI50 (SF-268) was 20.2 µM (inactive), the GI50 (CCRF-CEM) was > 100 µM (inactive) and the GI50 (HCT-15) was 4.6 µM. For the same compound, the GI50 (COLO 205) was 13.1 µM (inactive), the GI50 (HOP-62) was > 100 µM (inactive) and the GI50 (HL-60) was 14.5 µM (inactive). For the same compound, the GI50 (K562) was 2.32 µM (inactive), the GI50 (M19-MEL) was 19.7 µM (inactive) and the GI50 (OVCAR-8) was > 100 µM (inactive). For the same compound, the GI50 (A549) was 31 µM (inactive), the GI50 (HOP-92) was 3.62 µM (inactive) and the GI50 (IGROV-1) was 17.2 µM (inactive). The GI50 (U-251) was > 96.8 µM (inactive), the GI50 (SK-MEL-28) was 10.8 µM (inactive) and the GI50 (NCI-H226) was > 100 µM (inactive). For the same compound, the GI50 (SF-295) was 43.1 µM (inactive), the GI50 (UACC-62) was 5.46 µM (inactive) and the GI50 (NCI/ADR-RES) was > 100 µM (inactive). For the same compound, the GI50 (DU-145) was 7.78 µM (inactive), the GI50 (RXF 393) was 6.75 µM (inactive) and the GI50 (DMS-273) was 8.18 µM (inactive). The GI50 (RPMI-8226) was > 97.5 µM (inactive), the GI50 (SW-620) was 12.7 µM (inactive) and the GI50 (OVCAR-3) was > 100 µM (inactive). For the same compound, the GI50 (SK-OV-3) was 14.8 µM (inactive), the GI50 (HCT-116) was 4.75 µM (inactive) and the GI50 (CAKI-1) was 7.82 µM (inactive). For the same compound, the GI50 (M14) was 22 µM (inactive), the GI50 (NCI-H522) was 44.8 µM (inactive) and the GI50 (DMS-114) was 17.6 µM (inactive). The GI50 (HT-29) was 12.4 µM (inactive), the GI50 (SN12C) was 9.08 µM (inactive) and the GI50 (786-0) was 12.4 µM (inactive). The GI50 (UACC-257) was 14 µM (inactive), the GI50 (Malme-3M) was 18.5 µM (inactive) and the GI50 (SNB-75) was 19.2 µM (inactive).
With `CC1(c2ccccc2Cl)C(C#N)C(=O)NC(=O)C1C#N` (configuration not stated) the GI50 (LXFL 529) was 27 µM (inactive), the GI50 (TK-10) was > 100 µM (inactive) and the GI50 (MOLT-4) was 31.2 µM (inactive). For the same compound, the GI50 (ACHN) was 34.8 µM (inactive), the GI50 (SK-MEL-5) was 25.8 µM (inactive) and the GI50 (SF-539) was 34.8 µM (inactive). The GI50 (SNB-19) was 28.7 µM (inactive), the GI50 (NCI-H460) was 36.6 µM (inactive) and the GI50 (KM12) was > 10 µM (inactive). For the same compound, the GI50 (A498) was 36.4 µM (inactive), the GI50 (SK-MEL-2) was 49.9 µM (inactive) and the GI50 (DLD-1) was 68.7 µM (inactive). The GI50 (NCI-H23) was 33.3 µM (inactive), the GI50 (EKVX) was 24.5 µM (inactive) and the GI50 (LOX IMVI) was 40.1 µM (inactive). For the same compound, the GI50 (KM-20L2) was 36.1 µM (inactive), the GI50 (OVCAR-4) was 33.3 µM (inactive) and the GI50 (SNB-78) was 55.6 µM (inactive). For the same compound, the GI50 (HCC 2998) was 41.3 µM (inactive), the GI50 (UO-31) was 27.5 µM (inactive) and the GI50 (OVCAR-5) was 91 µM (inactive). The GI50 (SF-268) was 35.8 µM (inactive), the GI50 (CCRF-CEM) was 30.1 µM (inactive) and the GI50 (HCT-15) was over 100 µM. For the same compound, the GI50 (COLO 205) was 45 µM (inactive), the GI50 (HOP-62) was 30.6 µM (inactive) and the GI50 (HL-60) was 21.6 µM (inactive). The GI50 (K562) was 27.4 µM (inactive), the GI50 (M19-MEL) was 35.3 µM (inactive) and the GI50 (OVCAR-8) was 35.6 µM (inactive). For the same compound, the GI50 (A549) was 45.5 µM (inactive), the GI50 (HOP-92) was 23.5 µM (inactive) and the GI50 (IGROV-1) was 64.1 µM (inactive). The GI50 (SK-MEL-28) was 37.8 µM (inactive), the GI50 (NCI-H226) was 27.5 µM (inactive) and the GI50 (SF-295) was 32.7 µM (inactive). The GI50 (UACC-62) was 33.6 µM (inactive), the GI50 (RXF 393) was 27.9 µM (inactive) and the GI50 (DMS-273) was 33.6 µM (inactive). For the same compound, the GI50 (RPMI-8226) was 22.7 µM (inactive), the GI50 (SW-620) was 43.8 µM (inactive) and the GI50 (OVCAR-3) was 17.8 µM (inactive). For the same compound, the GI50 (SK-OV-3) was 34.6 µM (inactive), the GI50 (CAKI-1) was > 100 µM (inactive) and the GI50 (M14) was 42.6 µM (inactive). The GI50 (NCI-H522) was 20.8 µM (inactive), the GI50 (DMS-114) was 30.9 µM (inactive) and the GI50 (HT-29) was 36.6 µM (inactive). For the same compound, the GI50 (SN12C) was 28.7 µM (inactive), the GI50 (786-0) was 45.6 µM (inactive) and the GI50 (UACC-257) was 30.5 µM (inactive). For the same compound, the GI50 (Malme-3M) was 35.5 µM (inactive) and the GI50 (SNB-75) was 24.8 µM (inactive).
In the case of `COC(=O)C1C2CC3C(OC(=O)C31)C2I` (configuration not stated), the GI50 (TK-10) is reported as > 10 µM (inactive), the GI50 (MOLT-4) is reported as > 100 µM (inactive) and the GI50 (ACHN) is reported as > 100 µM (inactive). For the same compound, the GI50 (SK-MEL-5) was > 100 µM (inactive), the GI50 (SF-539) was > 100 µM (inactive) and the GI50 (SNB-19) was > 100 µM (inactive). The GI50 (SR) was > 100 µM (inactive), the GI50 (NCI-H460) was > 100 µM (inactive) and the GI50 (KM12) was > 100 µM (inactive). The GI50 (A498) was > 100 µM (inactive), the GI50 (SK-MEL-2) was > 100 µM (inactive) and the GI50 (NCI-H23) was > 100 µM (inactive). For the same compound, the GI50 (EKVX) was > 100 µM (inactive), the GI50 (LOX IMVI) was > 100 µM (inactive) and the GI50 (KM-20L2) was > 100 µM (inactive). The GI50 (OVCAR-4) was > 100 µM (inactive), the GI50 (SNB-78) was > 100 µM (inactive) and the GI50 (HCC 2998) was > 100 µM (inactive). For the same compound, the GI50 (UO-31) was > 100 µM (inactive), the GI50 (OVCAR-5) was > 100 µM (inactive) and the GI50 (SF-268) was > 100 µM (inactive). For the same compound, the GI50 (HCT-15) was over 100 µM, the GI50 (COLO 205) was > 100 µM (inactive) and the GI50 (HOP-62) was > 100 µM (inactive). The GI50 (HL-60) was > 100 µM (inactive), the GI50 (K562) was > 100 µM (inactive) and the GI50 (M19-MEL) was > 100 µM (inactive). The GI50 (OVCAR-8) was > 100 µM (inactive), the GI50 (A549) was > 100 µM (inactive) and the GI50 (HOP-92) was > 100 µM (inactive). For the same compound, the GI50 (IGROV-1) was > 100 µM (inactive), the GI50 (U-251) was > 100 µM (inactive) and the GI50 (SK-MEL-28) was > 10 µM (inactive). The GI50 (NCI-H226) was > 100 µM (inactive), the GI50 (SF-295) was > 100 µM (inactive) and the GI50 (UACC-62) was > 100 µM (inactive). The GI50 (RXF 393) was > 10 µM (inactive), the GI50 (DMS-273) was > 100 µM (inactive) and the GI50 (RPMI-8226) was > 100 µM (inactive). For the same compound, the GI50 (SW-620) was > 100 µM (inactive), the GI50 (OVCAR-3) was > 100 µM (inactive) and the GI50 (SK-OV-3) was > 100 µM (inactive). For the same compound, the GI50 (HCT-116) was > 100 µM (inactive), the GI50 (CAKI-1) was > 100 µM (inactive) and the GI50 (M14) was > 100 µM (inactive). The GI50 (NCI-H522) was > 100 µM (inactive), the GI50 (DMS-114) was > 100 µM (inactive) and the GI50 (HT-29) was > 100 µM (inactive). The GI50 (SN12C) was > 100 µM (inactive), the GI50 (786-0) was > 100 µM (inactive) and the GI50 (UACC-257) was > 100 µM (inactive). For the same compound, the GI50 (Malme-3M) was > 100 µM (inactive) and the GI50 (SNB-75) was > 100 µM (inactive).
